Assay results as given in patent US20110200531A1, “TREATMENT AND DIAGNOSIS OF CENTRAL NERVOUS SYSTEM DISORDERS” (THE REGENTS OF THE UNIVERSITY OF CALIFORNIA, priority 2009, published 2011).
Entries after “also recorded” stand apart in the source; their conditions may differ.

How the values were obtained:
5×FAD mice = test: Novel object recognition task in 5×FAD mice; format: in vivo; conditions: chow containing 300 mg/Kg from postnatal day 61 for 4 months; N=8-12
Experimental: FIG. 22: Improvement of memory in 5×FAD mice by synthetic form of TMP treatments. Novel object recognition task was performed and depicted as FIG. 21.
Wild type littermates were used for comparison. All the mice were fed with normal chow (Vehicle) or containing 300 mg/Kg either TMP-N or TMP-S from postnatal day 61 for exactly 4 months until the day for the completion of behavioral assessments.

5×FAD mouse retinas = test: Retinal ganglion cell (RGC) quantification in 5×FAD mouse retinas; format: in vivo, mice; conditions: chow containing 300 mg/Kg from postnatal day 61 for 4 months
Experimental: FIG. 24: Preservation of retinal ganglion cells (RGC) in 5×FAD mice by TMP (see Section 6.3.1). Numbers of RGC of wild-type, control (Vehicle) and TMP-treated mice were quantified.
5×FAD mice and wild type littermates (control) were fed with normal chow (Vehicle) or chow containing 300 mg/Kg of either TMP-N or TMP-S (see Section 6.3.1) from postnatal day 61 for exactly 4 months until the day of analysis. RGC cells were quantified in cross retinal sections as described in Liu et al., American Journal of Pathology, 2009.

mouse primary neurons = test: Survival of mouse primary neurons following exposure to hydrogen peroxide; format: cell-based; conditions: 25-50 μM, hydrogen peroxide 10-100 μM
[1] = test system: SH-SY5Y human neuroblastoma cells; test: Survival of SH-SY5Y cells following exposure to hydrogen peroxide; format: cell-based; conditions: for cell survival following exposure to hydrogen peroxide: SH-SY5Y, 25-50 μM, hydrogen peroxide 10-100 μM; for oxidative stress measured by production of malondialdehyde (MDA) and hydrogen peroxide: cultured cells (cell type not specified); for difference in protective efficacy between the two differently-sourced TMP compounds: statistical analysis, TMP-N vs TMP-S
Tg2576 mice = test: Aβ-related vaccinations in Tg2576 mice: retinal and brain pathology; format: in vivo; conditions: for Aβ deposits in hippocampal and neocortical areas of brain (6E10) / Aβ immunoreactivity in retinal microvessels / retinal amyloid angiopathy score: 10-month vaccination; for Aβ immunoreactivity in retinal microvessels / retinal amyloid angiopathy score: Aβ and vWF double-labeled microvessels, vs sham-immunized Tg2576
Experimental: The Aβ oligomer antigen was prepared from Aβ1-40 based on our previously published work (Kayed et al., 2003). Briefly, lyophilized Aβ1-40 peptides were resuspended in 50% acetonitrile in water and relyophilized. Soluble prefibrillar oligomers were prepared by dissolving 1.0 mg of peptide in 400 μl of hexafluoroisopropanol for 10˜20 minutes at room temperature. The resultant seedless solution (100 μl) was added to 900 μl of MilliQ H2O in a siliconized Eppendorf tube. After 10˜20 minutes incubation at room temperature, the samples were centrifuged for 15 minutes at 14,000×g, and the supernatant fraction (pH 2.8˜3.5) was transferred to a new siliconized tube and subjected to a gentle stream of N2 for 5˜10 minutes to evaporate the hexafluoroisopropanol. […] Oligomers were validated by atomic force microscopy, electron microscopy, and size exclusion chromatography as described previously (Kayed et al., 2003). The Aβ fibril was prepared from Aβ1-42, because it is more fibrillogenic as compared with Aβ1-40. Aβ1-40, predominantly in fibrillary form, was previously studied in a randomized, double-blind, placebo-controlled phase 2a clinical trial, study AN1792(QS-21)-201 by Gilman and colleagues (Gilman et al., 2005). Fibrils were formed by dissolving the lyophilized Aβ1-42 in 50% hexafluoroisopropanol and stirred with closed caps for 7 days. Solution is stirred again for 2 days in capped tubes with 20-gauge needle holes on the top to allow the hexafluoroisopropanol to evaporate. This whole preparation was done in a fume food to accelerate evaporation and minimize falling of dust or other foreign material. Fibrils were precipitated by centrifugation for 15 minutes at 14,000 rpm and washed in PBS, and resuspended at 2 mg/ml. For the prefibrillar oligomer antigen, Aβ oligomer (AO) molecular mimic was prepared by conjugating Aβ1-40 via a C-terminal thioester to 5-nm colloidal gold as described previously (Kayed and Glabe, 2006). […] Immunization schemes were conducted in a similar way as described previously (Zhou et al., 2005). […] Administration of an equivalent volume of PBS with the adjuvant but without any peptide antigen to both wild-type and transgenic mice was used as control. All experimental procedures were performed under protocols approved by the University of California Irvine Institutional Animal Care and Use Committee. Tissue Preparation: Mice were deeply anesthetized with an overdose of Nembutal (100 mg/kg, i.p.) and perfused transcardially with ice-cold PBS. The eyes were directly collected and fixed overnight with 4% paraformaldehyde in PBS (pH 7.4, 4° C.) following brain removal. Fixed eyes were stored in PBS containing 20% sucrose and 0.05% sodium azide (NaN3) at 4° C. until use. Following removal of lenses with forceps fixed eyes were cryomolded with OCT. Cross-retinal cryostat sections (12 μm) were thaw-mounted onto “Superfrost plus” glass slides (Fisher, Tustin, Calif.), air-dried for 30 minutes and stored at 4° C. before staining. […] Immunohistochemistry and Quantification: […] The immunoreactivity of APP, hyperphosphorylated tau (AT8), and Aβ in selected sections was also detected using the avidin-biotin complex method, followed by staining with DAB and brief counterstaining with hematoxylin. […] The results were evaluated by either fluorescence or conventional microscopy with a Leica DM microscope. Images were recorded using a Spot II charge-coupled device camera with equal exposure times for all different groups of tissues. […]

5×FAD mouse brains = test: Abeta immunoreactivity (6E10) in 5×FAD mouse brains; format: in vivo, mice; conditions: chow containing 300 mg/Kg from postnatal day 61 for 4 months
Text: Animal tissues were perfused with 1×PBS followed by overnight fixation in 4% paraformaldehyde in cold room. Vibrotome sections (˜50 μm thick) were immunostained with 6E10 antibody, which recognizes all forms of Abeta, and visualized by fluorescence microscopy.

3×Tg-AD mice = test: Learning and memory in 3×Tg AD mice (novel object recognition, Morris water maze); format: in vivo; conditions: 16-month old 3×Tg-AD females
Experimental: Both 16-month old 3×Tg-AD and background-matched wild type (WT) mice (females) were fed with TMPcontaining or nutrients matched control for 60 days as described in FIG. 3. (A) On day 61, all the mice were tested for object recognition as previously described. Briefly, mice (n=14 for each group) were habituated to a 60×30 cm container for 5 min. Two identical objects were placed in the bottom of the cage as mirror images of each other. The animal was trained for 5 min followed by a 5 min retention interval in the home cage. Then one of the objects in the test container was replaced with a novel object. During the 3-min probe trial, the mouse was placed in the cage and time spent investigating both objects was measured. A recognition index (R1) score is depicted as: (TimeN (in seconds for novel object)/TimeTotal (in seconds for both old and novel objects))×100. (B-D) Starting on day 62, all the mice were trained for 9 days on the Morris water maze (MWM) exactly as described for the behavior testing. […] (C) MWMprobe trial for number of platform location crosses, and (D) MWM probe trial for time spent in the target quadrant. As shown by the p values, (*) indicates significant improvement by TMP treatments with respect to the corresponding controls.
FIG. 21A-D: Improvement of learning and memory in aged 3×Tg AD mice by TMP treatment. Novel object recognition task was performed. A recognition index (R1) score is depicted as: [TimeN (in seconds for novel object)/TimeTotal (in seconds for both old and novel objects)]×100. B-D Starting on day 62, all the mice were trained for 9 days on the Morris water maze (MWM) for the behavior testing. […] (C) MWM probe trial for number of platform location crosses, and (D) MWM probe trial for time spent in the target quadrant. As shown by the p values, (*) indicates significant improvement by the compound treatments with respect to the corresponding controls.
TMP improves pathology in brains of 3×Tg-AD mice and results in increased memory and learning (See FIGS. 3, 4, and 10). In these mice, the earliest pathological hallmark is the accumulation of intraneuronal Aβ in the hippocampus, cortex and amygdala in 4 month old 3×Tg-AD homozygous mice. […] Between 4-6 months of age 3×Tg-AD homozygous mice develop diffuse amyloid plaques in the neocortex. At 6 months the retention deficits are associated with significant impairments in spatial learning of the Morris Water Maze task. […] Brain and retina pathology was evaluated by immunohistochemistry with specific antibodies and learning and memory performance were scored using the Novel Object Recognition Task and using Morris Water Maze trials.
The ability of TMP-N to improve learning and memory in 3×Tg AD mice was assessed using novel object recognition task. […]

Row | Molecule | memory performance, novel object recognition task (5×FAD mice) | number of retinal ganglion cells (RGC) (5×FAD mouse retinas) | cell survival following exposure to hydrogen peroxide (mouse primary neurons) | cell survival following exposure to hydrogen peroxide [1] | oxidative stress measured by production of malondialdehyde (MDA) and hydrogen peroxide [1] | difference in protective efficacy between the two differently-sourced TMP compounds [1] | Aβ deposits in hippocampal and neocortical areas of brain (6E10) (Tg2576 mice) | Aβ immunoreactivity in retinal microvessels / retinal amyloid angiopathy score (Tg2576 mice) | number of Aβ plaques / Aβ deposits in retina (Tg2576 mice; 100 μg s.c. with incomplete Freund's adjuvant once a month for 10 months, vs PBS adjuvant) | Abeta immunoreactivity / deposits in brain (6E10) (5×FAD mouse brains) | Morris water maze (MWM) acquisition performance (3×Tg-AD mice; TMP diet 60 days, trained 9 days from day 62) | learning and memory (object recognition, MWM probe trials) (3×Tg-AD mice; TMP-containing diet)
1 | Cc1nc(C)c(C)nc1C [TMP-S, tetramethylpyrazine] | significantly improved memory performance; also recorded: significantly improved this performance | significantly preserved RGC; also recorded: significantly increased number of RGC | significantly increased cell survival | significantly increased cell survival | remarkable reduction of oxidative stress | no significant difference |  |  |  |  |  | 
2 | AF: Aβ fibril prepared from Aβ1-42; vaccine immunogen |  |  |  |  |  |  | notably less Aβ deposits | even greater Aβ immunoreactivity |  |  |  | 
3 | AO: Aβ oligomer molecular mimic prepared by conjugating Aβ1-40 via a C-terminal thioester to 5-nm colloidal gold; vaccine immunogen |  |  |  |  |  |  | notably less Aβ deposits | even greater Aβ immunoreactivity | significant reduction in the number of Aβ plaques |  |  | 
4 | Cc1nc(C)c(C)nc1C [TMP-N, tetramethylpyrazine] | some negative effects; also recorded: slight negative effect on the memory performance | slightly preserved RGC; also recorded: slight protective effect on RGC | significantly increased cell survival | significantly increased cell survival | remarkable reduction of oxidative stress | no significant difference |  |  |  | Abeta deposits were decreased in both cortical and hippocampal regions | significantly improved the performance of 3×Tg-AD mice | significantly restored learning and memory
